Patent US20250171433A1, “A1H-BENZO[C][1,2]THIADIAZINE-2,2-DIOXIDES BEARING HETEROCYCLIC LINKERS AS SELECTIVE HISTONE DEACETYLASE 6 INHIBITORS” (Georgetown University, priority 2022, published 2025)
Where two headings read alike, the source gives them in different places.

Key:
hHDAC6 = target: T1, hHDAC6 (Homo sapiens, UniProt Q9UBN7); experiment: HDAC enzyme activity inhibition assay, HDAC6; format: biochemical; conditions: duplicate, performed by DRC; read-out: potency at hHDAC6
T1 construct: host or cells: baculovirus / Sf9 cells
T1 sequence (Q9UBN7 1-1215): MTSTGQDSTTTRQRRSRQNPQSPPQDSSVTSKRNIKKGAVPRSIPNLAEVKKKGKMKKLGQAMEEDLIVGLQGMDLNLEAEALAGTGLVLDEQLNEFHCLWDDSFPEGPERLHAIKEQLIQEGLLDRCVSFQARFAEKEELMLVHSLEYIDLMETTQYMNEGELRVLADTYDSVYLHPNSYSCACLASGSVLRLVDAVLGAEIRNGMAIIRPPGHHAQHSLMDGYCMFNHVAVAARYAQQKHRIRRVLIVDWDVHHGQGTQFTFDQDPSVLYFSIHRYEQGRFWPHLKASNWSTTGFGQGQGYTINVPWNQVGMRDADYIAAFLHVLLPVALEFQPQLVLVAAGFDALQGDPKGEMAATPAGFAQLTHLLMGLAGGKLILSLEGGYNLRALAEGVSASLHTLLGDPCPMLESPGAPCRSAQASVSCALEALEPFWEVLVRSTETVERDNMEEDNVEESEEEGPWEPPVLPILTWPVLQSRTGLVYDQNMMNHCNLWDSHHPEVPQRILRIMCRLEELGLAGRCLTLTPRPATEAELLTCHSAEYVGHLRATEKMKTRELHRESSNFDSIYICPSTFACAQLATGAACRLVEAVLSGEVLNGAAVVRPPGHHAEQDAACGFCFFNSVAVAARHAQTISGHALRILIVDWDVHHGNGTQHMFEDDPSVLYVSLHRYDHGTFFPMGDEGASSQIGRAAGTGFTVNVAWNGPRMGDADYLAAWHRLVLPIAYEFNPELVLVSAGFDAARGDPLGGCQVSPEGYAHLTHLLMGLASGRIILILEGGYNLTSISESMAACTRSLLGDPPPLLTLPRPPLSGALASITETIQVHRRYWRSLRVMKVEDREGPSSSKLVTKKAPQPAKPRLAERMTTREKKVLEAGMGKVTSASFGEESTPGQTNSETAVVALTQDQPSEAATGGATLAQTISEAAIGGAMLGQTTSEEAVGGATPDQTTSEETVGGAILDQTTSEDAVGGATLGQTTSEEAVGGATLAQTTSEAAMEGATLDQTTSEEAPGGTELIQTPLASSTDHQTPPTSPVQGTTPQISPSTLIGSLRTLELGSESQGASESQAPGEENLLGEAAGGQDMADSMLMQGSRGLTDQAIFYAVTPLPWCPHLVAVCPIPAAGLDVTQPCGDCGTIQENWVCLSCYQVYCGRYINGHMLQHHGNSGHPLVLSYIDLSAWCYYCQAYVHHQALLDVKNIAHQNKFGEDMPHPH
Description: (§1) The effectiveness, or potency, of a present HDAC6I with respect to inhibiting the activity of an HDAC is measured by an IC50 value. The quantitative IC50 value indicates the concentration of a particular compound that is needed to inhibit the activity of an enzyme by 50% in vitro. Stated alternatively, the IC50 value is the half maximal (50%) inhibitory concentration of a compound tested using a specific enzyme, e.g., HDAC, of interest.
(§2) The HDAC1, 2, 4, 5, 6, 7, 8, 9, 10, and 11 assays used isolated recombinant human protein; HDAC3/NcoR2 complex was used for the HDAC3 assay. Substrate for HDAC1, 2, 3, 6, 10, and 11 assays is a fluorogenic peptide from p53 residues 379-382 (RHKKAc); substrate for HDAC8 is fluorogenic diacyl peptide based on residues 379-382 of p53 (RHKAcKAc). Acetyl-Lys(trifluoroacetyl)-AMC substrate was used for HDAC4, 5, 7, and 9 assays. Compounds were dissolved in DMSO and tested in 10-dose IC50 mode with 3-fold serial dilution starting at 30 μM. […]
(§3) All IC50 values are automatically calculated using the GraphPad Prism version 5 and Equation of Sigmoidal dose-response (variable slope): […]
(§4) HDAC Activity Assays: HDAC assay is performed using fluorescently-labeled acetylated substrate, which comprises an acetylated lysine side chain. […] HDACs 1 and 6 were expressed as full length fusion proteins. […]

HDAC1 = target: T2, HDAC1 (Homo sapiens, UniProt Q13547); experiment: HDAC enzyme activity inhibition assay, HDAC1; format: biochemical; conditions: DRC
T2 construct: host or cells: baculovirus / Sf9 cells
T2 sequence (Q13547 whole entry): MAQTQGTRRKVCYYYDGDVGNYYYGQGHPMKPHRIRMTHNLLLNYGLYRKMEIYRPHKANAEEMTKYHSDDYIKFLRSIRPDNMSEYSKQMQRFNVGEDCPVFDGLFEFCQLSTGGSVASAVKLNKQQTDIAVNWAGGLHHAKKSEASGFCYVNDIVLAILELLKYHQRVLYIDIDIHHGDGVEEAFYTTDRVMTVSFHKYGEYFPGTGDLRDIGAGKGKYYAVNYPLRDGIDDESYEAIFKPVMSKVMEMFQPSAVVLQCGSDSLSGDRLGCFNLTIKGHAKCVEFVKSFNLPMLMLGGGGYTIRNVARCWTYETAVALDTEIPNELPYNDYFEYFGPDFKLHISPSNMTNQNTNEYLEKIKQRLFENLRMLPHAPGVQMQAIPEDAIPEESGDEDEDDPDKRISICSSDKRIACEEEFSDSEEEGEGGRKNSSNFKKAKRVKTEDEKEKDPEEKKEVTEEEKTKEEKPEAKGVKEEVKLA
Description: as §1, §2, §3, §4

other HDAC subtypes = experiment: Inhibition of other HDAC subtypes at a single concentration; format: biochemical, human
Description: The HDAC1, 2, 4, 5, 6, 7, 8, 9, 10, and 11 assays used isolated recombinant human protein; HDAC3/NcoR2 complex was used for the HDAC3 assay. Substrate for HDAC1, 2, 3, 6, 10, and 11 assays is a fluorogenic peptide from p53 residues 379-382 (RHKKAc); substrate for HDAC8 is fluorogenic diacyl peptide based on residues 379-382 of p53 (RHKAcKAc). Acetyl-Lys(trifluoroacetyl)-AMC substrate was used for HDAC4, 5, 7, and 9 assays. Compounds were dissolved in DMSO and tested in 10-dose IC50 mode with 3-fold serial dilution starting at 30 μM. Control compound trichostatin A (TSA) was tested in a 10-dose IC50 mode with 3-fold serial dilution starting at 5 μM. IC50 values were extracted by curve-fitting the dose/response slopes. Assays were performed in duplicate, and IC50 values are an average of data from both experiments.

Kinetic solubility = format: physicochemical
Permeability and efflux = format: in vitro ADME
[1] = Clearance in human microsomes; format: in vitro ADME
[2] = Clearance in mouse microsomes; format: in vitro ADME
[3] = Free fraction in mouse plasma; format: in vitro ADME
[4] = Free fraction in human plasma; format: in vitro ADME
[5] = Chemical stability at pH 7.4 and 2; format: physicochemical
Mice iv PK = conditions: mouse, in vivo
[6] = Oral PK study with brain and sciatic nerve exposure; format: in vivo, mice
[7] = Reported functional activity
[8] = mouse, plasma, oral PK study, gavage

IC50 (hHDAC6): 29 nM
selectivity against HDAC1 (HDAC1): full selectivity
kinetic solubility (Kinetic solubility): high
efflux (Permeability and efflux): low
permeability (Permeability and efflux): high
clearance in human microsomes [1]: low
clearance in mouse microsomes [2]: higher
microsomal CLint ([2]; mouse, compared with set criteria in Schedule B, species not given): > 50 µL/min/mg
free fraction in mouse plasma [3]: high
free fraction in human plasma [4]: high
chemical stability at pH 2 ([5]; pH 2): chemically stable
chemical stability at pH 7.4 ([5]; pH 7.4): chemically stable
clearance (Mice iv PK): 44.9 mL/min/kg
Kp at 1 h ([6]; mouse, brain and plasma, oral, @1 h, read-out: Brain/Plasma ratio): 0.8
Kp at 4 h ([6]; mouse, brain and plasma, oral, @4 h, read-out: Brain/Plasma ratio): 1.2
concentrations detected in the brain and the sciatic nerve ([6]; mouse, in vivo): moderate
bioavailability ([6]; mouse, plasma, oral PK study): 14.7%
half-life ([6]; mouse, plasma, oral PK study): 2.2 h
Cmax [6, 8]: 456 ng/mL
Tmax [6, 8]: 0.25 h
MRT ([6]; mouse, plasma, oral PK study, read-out: mean residence time): 3.14 h
Kp at 1 h ([6]; mouse, sciatic nerve and plasma, oral, at 1 h, read-out: Sciatic nerve/plasma ratio): 0.4
clearance ([6]; oral PK study): medium
volume of distribution ([6]; oral PK study): medium
SMILES: O=S1(=O)CCc2ccccc2N1Cc1ccc(-c2nnc(C(F)F)o2)cn1 [Compound 1, 1-[[5-[5-(Difluoromethyl)-1,3,4-axadiazol-2-yl)pyridin-2-yl]methyl]-3,4-dihydro-1H-benzo[c][1,2]thiazine-2,2-dioxide]
% inh. at 10 μM versus other HDAC subtypes (other HDAC subtypes): < 20%
reported functional activity [7]: 0.76 µM
